Data reported in patent publication EP0332387B1, “Triazole derivatives, their preparation and their use as fungicides” (Sankyo Company Limited, priority 1988, dated 1989).

What was measured:
Format in all cases: in vivo
Rhizoctonia solani [1] = assay: Preventive activity against sheath blight of rice plants by submerged application (Experiment 4); details: rice seedlings (variety Nihonbare), applied to the water in the pots, 100 g per 10 ares, inoculated after 7 days, 5 days; height of the lesions
From the text: Rice seedlings (variety Nihonbare) at the 4 - 5 leaf stage grown in pots were flooded to a depth of 1 cm with water. The test compound was then applied to the water in the pots in an amount corresponding to 100 g per 10 ares. After keeping the seedlings in a greenhouse for 7 days, the water was drained from the pots and the seedlings were inoculated with the fungus, Rhizoctonia solani, by placing 4 - 5 oat grains on which the fungus had previously been cultured around the base of each seedling. The seedlings were then kept in a moist chamber for 5 days at 25 - 27 °C. The disease controlling index was given on the basis of the height of the lesions formed on the rice seedlings.
Except for Table 14F, the compounds tested have the formula (1-1), in which Ar represents the group shown at the beginning of each part of the Table and R^1, R^2, X and Y are as defined in the Table.
(§1) The disease controlling index shown in the foregoing Tables 11 to 19 is indicated by the following codes: • 5--no disease (complete control) • 4--disease rate is less than 10% of the untreated plant • 3--disease rate is 10% - 30% of the untreated plant • 2--disease rate is 30% - 50% of the untreated plant • 1--disease rate is 50% - 70% of the untreated plant • 0--disease rate is almost same as the untreated plant.

Candida albicans = assay: ED50 in mice infected with Candida albicans, oral treatment (Experiment 11); details: treated orally
Method: Groups of mice (each group contained 10 mice) were inoculated with 7 to 9 x 10^6 spores per mouse of Candida albicans. 1, 4, and 24 hours after the inoculation, each mouse was orally administered 20 mg/kg of the test compound each time. The anti-fungal activity was assessed by the survival rate 9 days after infection. The survival rate was recorded as 0% 2 days after infection in an untreated (control) group. […] Following essentially the same procedure as that described in Experiment 10, mice were infected with Candida albicans, and treated orally with various compounds of the invention, as shown in the following Table 21. Fifteen days after infection (or fourteen days in the case of the compounds of Example Nos. 5 and 10), ED50 values were determined and are reported in the following Table 21.

Sphaerotheca fuliginea = assay: Preventive activity against powdery mildew of cucumber (Experiment 8); details: cucumber seedlings sprayed at 300 ppm, inoculated after 24 hours, evaluated after 7 days in greenhouse; diseased area on third and fourth leaves
Method: Cucumber seedlings (variety Sagamihanpaku) at the 3 - 4 leaf stage were sprayed with an aqueous suspension of the test compound at a concentration of 300 ppm (30 ml/3 pots). The seedlings were then kept for 24 hours at room temperature, after which they were inoculated with conidida of Sphaerotheca fuliginea. After keeping the seedlings in a greenhouse for 7 days, the disease controlling index was evaluated on the basis of the diseased area on the third and fourth leaves.

Rhizoctonia solani [2] = assay: Preventive activity against sheath blight of rice plants (Experiment 2); design: key: 0 = disease as untreated, 5 = no disease (complete control); details: rice seedlings (variety Nihonbare), sprayed at 100 ppm (30 ml/3 pots) 24 hours before inoculation, 5 days; height of the lesions
Method: Rice seedlings (variety Nihonbare) at the 4 - 5 leaf stage were sprayed with an aqueous suspension of the test compound at a concentration of 100 ppm (30 ml/3 pots). The seedlings were then kept for 24 hours at room temperature, after which they were inoculated with the fungus, Rhizoctonia solani, by placing 4 - 5 oat grains on which the fungus had previously been cultured around the base of each seedling. The seedlings were then kept in a moist chamber for 5 days at 25 - 27 °C. The disease controlling index was given on the basis of the height of the lesions formed on the rice seedlings.
Except in Table 12G, the compounds tested have the formula (1-1), in which Ar represents the group shown at the beginning of each part of the Table and R^1, R^2, X and Y are as defined in the Table.
as §1

Gibberella Fujikuroi = assay: Activity against bakanae disease of rice plants by seed soaking (Experiment 5); design: key: 0 = disease as untreated, 5 = no disease (complete control); details: infected rice seeds (variety Tanginbozu) immersed 3 days in aqueous suspension (concentration not given), 3 weeks; number of diseased seedlings
Method: Ten grams of rice seeds (variety Tanginbozu), infected with Gibberella Fujikuroi, were immersed in 20 ml of an aqueous suspension of the test compound for 3 days. At the end of this time, the treated seeds were densely sown in soil in pots, and the pots were placed in a greenhouse at 20 - 30 °C for 3 weeks. The disease controlling index was given on the basis of the number of diseased seedlings.
(§2) The compounds tested have the formula (1-1), in which Ar represents the group shown at the beginning of each part of the Table and R^1, R^2, X and Y are as defined in the Table.
as §1

Venturia inaequalis = assay: Preventive activity against apple scab (Experiment 9); details: apple seedlings sprayed at 300 ppm, inoculated after 24 hours, 3 days moist chamber then 10 days greenhouse; diseased area on third and fourth leaves
Method: Apple seedlings at the 3 - 4 leaf stage were sprayed with an aqueous suspension of the test compound at a concentration of 300 ppm (30 ml/3 pots). The seedlings were then kept for 24 hours at room temperature, after which they were inoculated with the fungus, Venturia inaequalis, by spraying a spore suspension of the fungus over the seedlings. After inoculation, the seedlings were kept in a moist chamber for 3 days at 20 - 22 °C and then moved to a greenhouse at 20 - 22°C for 10 days. The disease controlling index was given on the basis of the diseased area on the third and fourth leaves.

Rhizoctonia solani [3] = assay: Curative activity against sheath blight of rice plants (Experiment 3); design: key: 0 = disease as untreated, 5 = no disease (complete control); details: rice seedlings (variety Nihonbare), sprayed 24 hours after inoculation at 10 ppm (30 ml/3 pots), further 5 days; height of the lesions
Method: Rice seedlings (variety Nihonbare) at the 4 - 5 leaf stage were inoculated with the fungus, Rhizoctonia solani, by placing 4 - 5 oat grains on which the fungus had previously been cultured around the base of each rice seedling and keeping them in a moist chamber at 25 - 27 °C. After 24 hours, the rice seedlings were sprayed with an aqueous suspension of the test compound at a concentration of 10 ppm (30 ml/3 pots) and they then continued to be kept in the moist chamber for a further 5 days. The disease controlling index was given on the basis of the height of the lesions formed on the rice seedlings.
as §2, §1

Puccinia recondita = assay: Curative activity against leaf rust of wheat (Experiment 6); details: wheat seedlings (variety Norin No 61), sprayed after inoculation at 3 ppm (30 ml/3 pots), 10 days; diseased area on the first leaf
Method: Wheat seedlings (variety Norin No 61) at the first leaf stage were inoculated with the fungus, Puccinia recondita, by spraying them with a spore suspension of the fungus. They were then kept in a moist chamber for 24 hours at 20 - 22 °C, after which they were moved to a greenhouse at 15 - 20 °C. […] The seedlings were then continuously kept in the greenhouse for 10 days. The disease controlling index was given on the basis of diseased area on the first leaf.

[4] = system: Erysiphe graminis f.sp. hordei; assay: Curative activity against powdery mildew of barley (Experiment 7); details: barley seedlings (variety Sekishinriki), sprayed one day after inoculation at 3 ppm (30 ml/3 pots), further 10 days; diseased area on the first leaf
Method: Barley seedlings (variety […]) at the first leaf stage were inoculated with conidia of Erysiphe graminis f.sp. hordei and kept in a greenhouse at 15 - 20°C. After one day, the seedlings were sprayed with an aqueous suspension of the test compound at a concentration of 3 ppm (30 ml/3 pots), and they continued to be kept in the greenhouse at that temperature for a further 10 days. The disease controlling index was given on the basis of the diseased area on the first leaf.

Pyricularia oryzae = details: rice seedlings (variety Sachikaze), sprayed 24 hours after inoculation at 10 ppm (30 ml/3 pots), further 6 days; number of lesions on the upper two leaves
[5] = 360 h, fifteen days after infection
[6] = 336 h, fourteen days after infection (Example Nos. 5 and 10)

Row | Compound | disease controlling index (Rhizoctonia solani [1]) | ED50 (Candida albicans; [5]) [mg/kg] | Index (disease controlling index) (Sphaerotheca fuliginea) | disease controlling index (Rhizoctonia solani [2]) | disease controlling index (Gibberella Fujikuroi) | Index (disease controlling index) (Venturia inaequalis) | disease controlling index (Rhizoctonia solani [3]) | disease controlling index (Puccinia recondita) | disease controlling index [4] | ED50 (Candida albicans; [6]) [mg/kg] | disease controlling index (Pyricularia oryzae)
1 | C[C@@H](N(C)C(=O)c1ccc(C(F)(F)F)cc1)[C@](O)(Cn1cncn1)c1ccc(F)cc1F (relative stereo) [Example 59, (2R^*, 3R*)-2-(2,4-Difluorophenyl)-3-{N-methyl-N-[4-(trifluoromethyl)benzoyl]amino}-1-(1H-1,2,4-triazol-1-yl)-2-butanol] | 4 (disease rate is less than 10% of the untreated plant) | 0.66 | 5 | 5 | 4 (disease rate is less than 10% of the untreated plant) | 5 | 5 | – | – | – | –
2 | C[C@@H](NC(=O)c1ccc(Cl)cc1)[C@](O)(Cn1cncn1)c1ccc(Cl)cc1Cl (relative stereo) [Example 5, (2R*, 3R*)-3-(4-Chlorobenzoylamino)-2-(2,4-dichlorophenyl)-1-(1H-1,2,4-triazol-1-yl)-2-butanol] | 4 (disease rate is less than 10% of the untreated plant) | – | 5 | 5 | – | 5 | – | 5 | 5 | 7.07 | –
3 | C[C@@H](SC(=O)c1ccc(C(F)(F)F)cc1)[C@](O)(Cn1cncn1)c1ccc(Cl)cc1Cl (relative stereo) [Example 46, (2R*, 3R*)-2-(2,4-Dichlorophenyl)-1-(1H-1 ,2,4-triazol-1-yl)-3-[4-(trifluoromethyl)benzoylthio]-2-butanol] | – | 0.73 | 5 | – | – | 5 | – | – | – | – | –
4 | C[C@@H](NC(=O)c1ccc(Cl)cc1)[C@](O)(Cn1cncn1)c1ccc(Cl)cc1Cl [Example 10, (2R, 3R)-3-(4-Chlorobenzoylamino)-2-(2,4-dichlorophenyl)-1-(1H-1,2,4-triazol-1-yl)-2-butanol] | – | – | 5 | 5 | 5 | 5 | 5 | – | – | < 2.5 | 4 (disease rate is less than 10% of the untreated plant)
